From paper PMC4710668, “Bioactivation of food genotoxicants 5-hydroxymethylfurfural and furfuryl alcohol by sulfotransferases from human, mouse and rat: a comparative study” (Archives of Toxicology, 2014)

Experiments:
Experiment in all cases: HMF sulfoconjugation assay
Format in all cases: biochemical
[1] = molecular target: T1, hSULT2B1b (Homo sapiens, UniProt O00204)
T1 construct: made in house; host or cells: Salmonella typhimurium TA1538 (cytosolic fraction, not purified)
T1 sequence (O00204 1-365): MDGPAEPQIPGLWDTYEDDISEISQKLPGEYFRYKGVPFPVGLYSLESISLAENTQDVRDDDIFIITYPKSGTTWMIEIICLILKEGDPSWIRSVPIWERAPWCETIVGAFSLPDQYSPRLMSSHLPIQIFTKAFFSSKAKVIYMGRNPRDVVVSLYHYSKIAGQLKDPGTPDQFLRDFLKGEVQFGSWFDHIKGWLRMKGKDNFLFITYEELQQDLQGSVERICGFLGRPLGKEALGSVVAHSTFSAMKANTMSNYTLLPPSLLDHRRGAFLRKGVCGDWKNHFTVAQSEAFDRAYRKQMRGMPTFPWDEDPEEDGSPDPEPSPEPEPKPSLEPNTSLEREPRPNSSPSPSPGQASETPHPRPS
Procedure: (§1) Cytosolic fractions containing individual SULT forms were prepared from transgenic S. typhimurium TA1538. Table S1 in the Supplementary Material provides a summary of the thirty SULTs used in the current study together with references describing the cloning of the respective S. typhimurium TA1538 strains. The expressed SULT forms are denoted with the prefixes h, m and r for human, mouse and rat enzymes, respectively. Bacteria were grown in Luria Broth medium containing ampicillin (100 µg/ml) by stirring for 8 h at 200 revolutions/min at 37 °C. The bacterial suspensions were centrifuged at 5,000 g for 10 min. The sediments were washed twice with 25 ml of 10 mM potassium phosphate buffer (pH 7.4)/50 mM potassium chloride (KCP buffer) and centrifuged again. The pellets were taken up in 800 µl KCP buffer and sonicated thrice for 15 s with 30 s pauses in between. The soluble fraction was attained by centrifuging for 1 h at 100,000 g. The supernatants (in the following termed cytosolic preparations) were frozen at −80 °C. The protein concentrations were determined according to a bicinchoninic acid (BCA) assay protocol. The SULT concentrations in the cytosolic preparations were estimated after electrophoretic separation and immunodetection using inclusion bodies of different SULT forms as standards (Teubner et al. [2007]). The preparation of SULT inclusion bodies and the immunodetection of SULTs is described in the Supplementary Material, which also contains a representative immunoblot of different amounts of rSult1a1standard and a cytosolic preparation of S. typhimurium expressing rSult1a1 (Fig. S1).
(§2) The reactions were conducted in mixtures of 100 µl containing 25–200 µg protein, 50 mM potassium phosphate buffer (pH 7.4), 5 mM MgCl2, 50 µM PAPS and different concentrations of HMF at 37 °C. Preliminary experiments ensured that measurements were recorded under ‘linear’ conditions, i.e., doubling of protein concentration or incubation time was doubling the amount of sulfate ester formed. The reactions were stopped after 30 min by adding 300 µl ice-cold 2-propanol, mixed and centrifuged at 15,000 g for 10 min.
(§3) SMF concentrations of the clear supernatants were analyzed by UPLC-MS/MS. The protocol was adapted from the quantification of SMF in plasma samples of HMF-treated mice (Monien et al. [2009]). In short, the supernatants were analyzed using a UPLC system (Waters) connected to a Quattro Premier XE tandem quadrupole mass spectrometer (Waters) using the negative electrospray ionization mode. Samples of 4 µl were injected into a HSS T3 column (1.8 µm, 2.1 × 100 mm; Waters) and eluted with an isocratic flow of 0.35 ml/min 10 mM ammonium acetate/methanol (95:5). The fragmentation reactions of SMF yielding two principal ions, the sulfate ion radical (m/z = 204.9 → 96.0) and the protonated sulfonate ion (m/z = 204.9 → 81.0) were monitored. The tune parameters were as follows: temperature of the electrospray source 120 °C; desolvation temperature 475 °C; desolvation gas nitrogen (800 l/h); cone gas nitrogen (100 l/h); collision gas argon (indicated cell pressure ~5 × 10^−3 mbar). For the fragmentation of SMF, collision energies were 20 and 23 eV for the transitions m/z = 204.9 → 81.0 and m/z = 204.9 → 96.0, respectively. The dwell time was set to 100 ms, and capillary voltage was set to 0.35 kV. The cone and RF1 lens voltages were 32 and 0.2 V, respectively. SMF was quantified using an external calibration line that was linear in the concentration range of 1.0 nM (4 fmol/injection) to 2,500 (10 pmol/injection) SMF (r ^2 ≥ 0.99). Data acquisition and handling were performed with MassLynx 4.1 software (Waters). The limit of detection (LOD) for this technique of 2.5 nM SMF has been reported (Monien et al. [2009]). In the current study, this corresponds to 10 fmol SMF per injection or a reaction rate of 0.5 pmol SMF/mg/min.

[2] = molecular target: T2, mSult1c2 (Mus musculus, UniProt Q9D939)
T2 construct: made in house; host or cells: Salmonella typhimurium TA1538 (cytosolic fraction, enzyme not purified)
Procedure: as §1, §2, §3

[3] = molecular target: T3, mSult1e1 (Mus musculus, UniProt P49891)
T3 construct: made in house; host or cells: Salmonella typhimurium TA1538 (cytosolic fraction, enzyme not purified)
T3 sequence (P49891 1-295): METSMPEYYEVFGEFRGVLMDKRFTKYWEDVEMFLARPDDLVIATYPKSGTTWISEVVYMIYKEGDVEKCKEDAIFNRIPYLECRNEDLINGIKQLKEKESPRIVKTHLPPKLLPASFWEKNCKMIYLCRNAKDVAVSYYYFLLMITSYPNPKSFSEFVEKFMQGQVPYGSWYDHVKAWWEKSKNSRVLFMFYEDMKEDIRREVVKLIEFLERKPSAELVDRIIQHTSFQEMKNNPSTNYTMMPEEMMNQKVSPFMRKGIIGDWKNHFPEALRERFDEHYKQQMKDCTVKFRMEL
Procedure: as §1, §2, §3

[4] = molecular target: T4, mSult2a2 (Mus musculus, UniProt P50236)
T4 construct: made in house; host or cells: Salmonella typhimurium TA1538 (cytosolic fraction, enzyme not purified)
T4 sequence (P50236 1-285): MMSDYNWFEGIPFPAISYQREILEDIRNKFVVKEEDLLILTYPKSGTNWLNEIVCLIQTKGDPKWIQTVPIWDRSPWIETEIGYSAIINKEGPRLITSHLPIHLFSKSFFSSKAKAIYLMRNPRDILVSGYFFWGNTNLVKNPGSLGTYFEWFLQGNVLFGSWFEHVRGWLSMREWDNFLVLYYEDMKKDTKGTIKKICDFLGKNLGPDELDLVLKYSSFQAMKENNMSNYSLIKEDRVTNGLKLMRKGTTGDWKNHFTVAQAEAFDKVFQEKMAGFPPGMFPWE
Procedure: as §1, §2, §3

T2 sequence (Q9D939 whole entry): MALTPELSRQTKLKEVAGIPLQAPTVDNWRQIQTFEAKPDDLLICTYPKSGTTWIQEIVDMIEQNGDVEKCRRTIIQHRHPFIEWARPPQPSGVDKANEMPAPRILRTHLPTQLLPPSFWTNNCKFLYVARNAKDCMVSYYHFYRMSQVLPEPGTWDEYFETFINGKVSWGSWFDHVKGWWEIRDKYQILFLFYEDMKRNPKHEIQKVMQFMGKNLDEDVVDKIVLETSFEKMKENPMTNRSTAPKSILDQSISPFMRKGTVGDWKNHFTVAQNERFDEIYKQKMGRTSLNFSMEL

In the case of `O=Cc1ccc(CO)o1` [HMF, 5-Hydroxymethylfurfural], the Rate of sulfoconjugation ([1]; 0.1 mM HMF) is reported as <0.5 pmol/mg/min, the Rate of sulfoconjugation ([1]; 1 mM HMF) is reported as <0.5 pmol/mg/min and the Rate of sulfoconjugation ([1]; 10 mM HMF) is reported as <0.5 pmol/mg/min. For the same compound, the Rate of sulfoconjugation ([1]; 100 mM HMF) was <0.5 pmol/mg/min, the Rate of sulfoconjugation ([2]; 0.1 mM HMF) was <0.5 pmol/mg/min and the Rate of sulfoconjugation ([2]; 1 mM HMF) was 2.0 ± 0.2 pmol/mg/min. The Rate of sulfoconjugation ([2]; 10 mM HMF) was 16.2 ± 1.1 pmol/mg/min, the Rate of sulfoconjugation ([2]; 100 mM HMF) was 92.4 ± 6.7 pmol/mg/min and the Rate of sulfoconjugation ([3]; 0.1 mM HMF) was 3.7 ± 0.3 pmol/mg/min. It also gave a Rate of sulfoconjugation ([3]; 1 mM HMF) of 35.5 ± 2.6 pmol/mg/min, a Rate of sulfoconjugation ([3]; 10 mM HMF) of 226 ± 9 pmol/mg/min and a Rate of sulfoconjugation ([3]; 100 mM HMF) of 534 ± 52 pmol/mg/min. The Rate of sulfoconjugation ([4]; 0.1 mM HMF) was <0.5 pmol/mg/min, the Rate of sulfoconjugation ([4]; 1 mM HMF) was 4.4 ± 0.8 pmol/mg/min and the Rate of sulfoconjugation ([4]; 10 mM HMF) was 32.4 ± 3.2 pmol/mg/min. It also gave a Rate of sulfoconjugation ([4]; 100 mM HMF) of 77.5 ± 11.7 pmol/mg/min.
